Data set [1] deals with Vero E6 cells.
The subject of data set [2] is SARS-CoV-2. The data set is classed as cell-based. Conditions: 70% concentration, 30 min contact, 22 ± 2° C.
Data set [3] deals with E. coli (gram−). Conditions: reported value of antibiotic; cited from earlier work.
The test system of data set [4] is B. subtilis (gram+). Conditions: reported value of antibiotic; cited from earlier work.
Data set [5] relates to C. albicans fungal strain. Particulars: reported value of antibiotic; cited from earlier work.
Data set [6] deals with P. aeruginosa (gram−). Conditions: reported value of antibiotic; cited from earlier work.
Data set [7] deals with S. aureus (gram+). Conditions: reported value of antibiotic; cited from earlier work.

A value given as a limit tells only on which side of the number the result lay.

`CCO` [Ethanol]: the “Toxicity (highest dilution of the endpoint titer where full (80-100%) cytotoxicity was observed)” value in data set [1] was “None”. Further, the “Virus Titer” value in data set [2] was <0.7 log10 CCID50 of virus per 0.1 mL. Also, the “LRV (log reduction value)” value in data set [2] (vs virus control 4.3) is reported as >3.6.

Consider gentamycin, for which the MIC (in general, the least concentration at which growth counts as inhibited) is 8 µg/mL in data set [3]; 4 µg/mL in data set [4]; 2.5 µg/mL in data set [5]; 4 µg/mL in data set [6]; 10 µg/mL in data set [7].
